Patent publication US20250082605A1 (priority 2016, published 2025)

Experiments:
[1] = tested on: early hypertensive rats; assay: Arterial pressure in early hypertensive rat model after epidural RTX; assay type: in vivo
Experimental: (§1) Open circles indicate the control population, while filled circles indicate the RTX-treated population. Epidural administration of RTX was by injection on Day 0, as indicated by the arrow on the graph.
(§2) The hypertensive model is a genetic spontaneously hypertensive rat (SHR). The early hypertension rats were treated at 8 weeks at age, reflecting a population in which blood pressure was only minimally elevated at the beginning of the study. Examples 10 and 11 illustrate treatment of subjects with hypertension and pre-hypertension (i.e., mild hypertension or early hypertension) and without induced CHF. For these subjects, epidural administration of RTX may be associated with an absolute reduction in blood pressure. Additionally, subjects treated with RTX may show less increase in blood pressure over time, as compared to a control population. Or, treatment may be associated with both an absolute reduction in pressure and lessened increase over time.
FIG. 13A-13C show experimental results in a study using an early-hypertensive rat model. […] Open circles indicate the control population, while filled circles indicate the RTX-treated population. Epidural administration of RTX was by injection on Day 0, as indicated by the arrow on each graph.

[2] = tested on: established hypertensive rat model; assay: MAP and heart rate in established hypertensive rats after lumbar (L2-L5) RTX administration; assay type: in vivo
Experimental: Blood pressure measurements are 8 hours average per day.
Example 12 describes an experiment in which RTX administration was made to the lumbar region of a rat population (L2-L5).
Blood pressure continued to increase above the pre-injection baseline level by the end of the study period.

[3] = tested on: spontaneously hypertensive rat (SHR); assay: Arterial pressure in spontaneously hypertensive rat (SHR) model with established hypertension after epidural RTX; assay type: in vivo
Experimental: as §1, §2
FIG. 14A-14C show further experimental results in a study using an (SHR) model. […] The established hypertensive rats were treated at 16 weeks at age, reflecting a population in which blood pressure was elevated at the beginning of the RTX administration. Open circles indicate the control population, while filled circles indicate the RTX-treated population. Epidural administration of RTX was by injection on Day 0, as indicated by the arrow on each graph. […] These subjects were not treated to induce myocardial infarction. The data allowed for comparison of SHR rats provided injection of the vehicle only (n=7) to those treated by injection of both vehicle and RTX (n=7).

[4] = tested on: rats with induced CHF; assay: Mean arterial pressure over 24 hours in CHF rats; assay type: in vivo, rat; conditions: epidural RTX, 10-12 weeks after myocardial infarction
Experimental: The study was conducted 10-12 weeks after the myocardial infarction.
(§3) For epidural application of RTX, a small midline incision was made in the region of the T13-L1 thoracic vertebrae. Following dissection of the superficial muscles, two small holes (approximately 2 mm by 2 mm) were made in the left and right sides of the T13 vertebra. A polyethylene catheter (PE-10) was inserted into the […] via the left hole and gently advanced about 5.5-6 cm to the left T1 level at which the first injection (6 μg/mL, 10 μL) was made at a very slow speed to minimize the diffusion of RTX. Then the catheter was pulled back about 0.5 cm to left T2, T3, and T4, respectively, to perform serial injections (10 μL each) in each segment. Then the catheter was withdrawn and the same injection was repeated on the right side. A silicone gel was used to seal the hole in the T13 vertebra. The skin overlying the muscle was closed with a 3-0 polypropylene suture. Simple interrupted sutures were used to close the skin.
For each population, n=6-8. The study was conducted for a 10-12 week period after the myocardial infarction. […] Treatment with epidural RTX corresponds to a lower MAP for the CHF rat population.

[5] = target: TRPV1 (Rattus norvegicus, UniProt O35433); assay: TRPV1 receptor intensity by vertebral level after epidural RTX injection at T1-T4; assay type: in vivo; set-up: from tissue; host or cells: rat tissue at vertebral levels C6-L4 after in vivo epidural RTX; conditions: RTX injection at T1-T4 vertebral levels, FIG. 2
Sequence of TRPV1 (O35433 whole entry): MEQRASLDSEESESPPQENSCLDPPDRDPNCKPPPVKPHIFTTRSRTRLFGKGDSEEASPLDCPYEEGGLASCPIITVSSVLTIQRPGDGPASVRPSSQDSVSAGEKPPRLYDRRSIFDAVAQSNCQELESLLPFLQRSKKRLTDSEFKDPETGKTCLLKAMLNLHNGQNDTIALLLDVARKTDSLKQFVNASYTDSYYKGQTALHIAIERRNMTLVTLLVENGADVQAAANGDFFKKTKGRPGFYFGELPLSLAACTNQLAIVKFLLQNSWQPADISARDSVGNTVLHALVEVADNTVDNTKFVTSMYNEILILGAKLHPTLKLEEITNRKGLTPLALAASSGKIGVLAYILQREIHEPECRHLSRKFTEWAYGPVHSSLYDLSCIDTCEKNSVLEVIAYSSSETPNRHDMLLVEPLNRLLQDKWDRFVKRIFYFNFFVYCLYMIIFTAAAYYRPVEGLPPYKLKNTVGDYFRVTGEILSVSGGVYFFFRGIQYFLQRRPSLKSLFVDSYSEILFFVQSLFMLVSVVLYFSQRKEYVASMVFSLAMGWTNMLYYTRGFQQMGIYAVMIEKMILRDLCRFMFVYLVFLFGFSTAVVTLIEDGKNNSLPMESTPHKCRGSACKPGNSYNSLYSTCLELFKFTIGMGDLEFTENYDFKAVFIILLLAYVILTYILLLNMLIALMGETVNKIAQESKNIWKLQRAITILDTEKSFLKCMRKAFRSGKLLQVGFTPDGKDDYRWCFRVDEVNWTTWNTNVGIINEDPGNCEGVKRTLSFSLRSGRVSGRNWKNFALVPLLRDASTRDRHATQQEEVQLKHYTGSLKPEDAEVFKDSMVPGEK
Excerpt: The nerves associated with the sympatho-excitation corresponding to increased cardiac sympathetic nerve activity are predominately found within the first four thoracic vertebral levels (Evans et al. (1953) N. Engl. J. Med. 249:791-796). Thus, administration to one or more of the first four thoracic vertebral levels may be beneficial because the nerves associated with cardiac sympathetic afferent nerve activity are predominately found within the first four thoracic vertebral levels. By treating these thoracic vertebral levels, denervation of these sympathetic afferent nerves will be substantially achieved with minimal or only partial denervation or ablation of nerves at other vertebral levels. […] Additionally, the small images inset on the figure show greater intensity of activity visible at the C6, C7, T6, T7, and L4 vertebral levels, as compared to the C8 through T5 vertebral levels.
For epidural application of RTX, a small midline incision was made in the region of the T13-L1 thoracic vertebrae. Following dissection of the superficial muscles, two small holes (approximately 2 mm by 2 mm) were made in the left and right sides of the T13 vertebra. […]

[6] = tested on: cardiac sympathetic afferent reflex (CSAR); assay: Response to activation of the CSAR (MAP, RSNA) over 26 weeks after epidural or epicardial RTX; assay type: in vivo, rat
Experimental: The following Examples 1 through 9 discuss data from rats with induced CHF. The Examples show many improved indicators associated with RTX treatment in CHF subjects. The rat models provide for comparison of epidural administration of RTX against epicardial administration of RTX and against various controls. For the epicardial data, RTX was administered directly to the epicardium by swab during open surgery contemporaneously with induced myocardial infarction (coronary artery ligation).
as §3
FIGS. 3A-4B show experimental results for a rat study in accordance with an embodiment of the present application.

[7] = vehicle-only continued to increase
[8] = established SHR, maintained throughout the study
[9] = epidural RTX vs vehicle, weeks 1, 5-6, 9-11, 24-26, FIG. 3B

`C=C(C)[C@]12C[C@@H](C)[C@@]34O[C@](Cc5ccccc5)(O[C@@H]1[C@@H]3C=C(COC(=O)Cc1ccc(O)c(OC)c1)C[C@]1(O)C(=O)C(C)=C[C@@H]41)O2` [RTX, resiniferatoxin] was tested, and the MAP following treatment [1] was 125-130 mmHg, the “day from which MAP was significantly lower than vehicle-only” value [1] was 20 days and the “day from which diastolic arterial pressure was significantly lower than control” value [1] was roughly 22 days. The “day from which systolic arterial pressure was significantly lower than control” value [1] was roughly 23 days, the “mean arterial pressure (MAP) after RTX injection” value ([1]; epidural RTX Day 0) was “decreased slightly” and the “systolic arterial pressure within a few days after RTX injection” value ([1]; then returned and maintained) was “decreased slightly”. The “diastolic arterial pressure over the study period” value [1, 7] was “remained approximately steady”, the “mean arterial pressure (MAP) over the period of the study” value [1, 7] was “approximately steady” and the “heart rate following RTX injection” value ([2]; RTX L2-L5) was “increase in heart rate”. For the same molecule, the “time over which heart rate increase subsides” value ([2]; RTX L2-L5, after injection) was 2 to 10 days, the “time at which MAP returned to the pre-injection baseline” value ([2]; RTX L2-L5, after treatment) was 15 to 20 days and the “MAP following lumbar injection” value ([2]; RTX L2-L5, established hypertensive rats) was “reduced immediately”. For the same molecule, the “sustained treatment of hypertension” value ([2]; RTX to lumbar region L2-L5) was “does not achieve the sustained treatment of hypertension”, the “day from which MAP reduction was significant vs vehicle-only” value ([3]; established SHR) was roughly 8 days and the “day from which diastolic arterial pressure differed significantly from vehicle-only” value ([3]; established SHR) was roughly 8 days. The “day from which systolic arterial pressure differed significantly from vehicle-only” value ([3]; established SHR) was roughly 7 days, the “mean arterial pressure (MAP) vs pre-injection baseline” value ([3]; established SHR, epidural RTX, observed throughout 55-day period) was “some reduction” and the “diastolic arterial pressure vs pre-injection baseline” value [3, 8] was “decrease”. The “systolic arterial pressure vs pre-injection baseline” value [3, 8] was “decrease”, the MAP following treatment ([3]; established hypertensive rats) was 125-130 mmHg and the “mean arterial pressure (MAP) over 24 hours” value [4] was “lower MAP”. For the same molecule, the “reduced vanilloid (TRPV1) receptor intensity, localisation” value [5] was “generally localized to the four treated vertebral levels and the one or two vertebral levels proximate the treated vertebral levels”, the “duration of cardiac sympathetic afferent ablation” value ([6]; epicardial RTX administration) was 3-4 months and the “mean arterial pressure (MAP) response to activation of the CSAR” value [6, 9] was “substantial decrease”. For the same molecule, the “renal sympathetic nerve activity (RSNA) response to activation of the CSAR” value [6, 9] was “substantial decrease”.
